Test results reported in article PMC11087268, “A folate inhibitor exploits metabolic differences in Pseudomonas aeruginosa for narrow-spectrum targeting” (Nature Microbiology, 2024).

What was measured:
Maximum tolerated dose = details: female, mouse, in vivo, sc; CD-1 mice, subcutaneous
From the text: For P. aeruginosa thigh infection model and maximum tolerated dose (MTD) studies, care and handling of female 5–6-week-old CD-1 conformed to Institutional Animal Care and Use Committee (IACUC) policies as carried out at the University of North Texas Health Science Center (Fort Worth, Texas) under UNTHSC IACUC-approved protocol nos. IACUC-2021-0003 and IACUC-2020-0039. Rodents were fed either base chow (Envigo) or base diet supplemented with 1.8 g kg^−1 thymidine (Sigma T9250) starting at 2 days before infection. All procedures were conducted in accordance with the UNTHSC IACUC-approved protocol. Animals were housed in rooms undergoing 10–15 air changes per hour. Air provided to the animal rooms was controlled for temperature and humidity and is fully monitored 24 h a day. Air pressure was balanced according to room use. Lighting was controlled in individual rooms by automatic timers with a standard 12 h on, 12 h off cycle.
MTD was determined by administration of compounds at increasing dosage until the maximum dose before adverse reactions were observed. Doses were increased in a stepwise manner from 1 mg kg^−1 to 5, 10, 25 and 50 mg kg^−1. […] The maximum tolerated dose of fluorofolin was determined to be 25 mg kg^−1 administered subcutaneously. MTD was evaluated by the UNTHSC.

P. aeruginosa PA14 = experiment: Growth of P. aeruginosa PA14 in TMI-supplemented media with fluorofolin; assay type: cell-based, Pseudomonas aeruginosa; details: Fluorofolin + TMI

Nc1nc(N)c2c(ccc3c2ccn3Cc2ccnc(F)c2)n1 [fluorofolin]
MTD (Maximum tolerated dose): 25 mg/kg | OD600 of P. Aeruginosa PA14 (P. aeruginosa PA14; Time 0 min): 0.00375 | OD600 of P. Aeruginosa PA14 (P. aeruginosa PA14; Time 64.0617 min): 0.00775 | OD600 of P. Aeruginosa PA14 (P. aeruginosa PA14; Time 74.7383 min): 0.00825 | OD600 of P. Aeruginosa PA14 (P. aeruginosa PA14; Time 85.415 min): 0.0086 | OD600 of P. Aeruginosa PA14 (P. aeruginosa PA14; Time 96.0917 min): 0.0088 | OD600 of P. Aeruginosa PA14 (P. aeruginosa PA14; Time 106.768 min): 0.00895 | OD600 of P. Aeruginosa PA14 (P. aeruginosa PA14; Time 117.445 min): 0.00965 | OD600 of P. Aeruginosa PA14 (P. aeruginosa PA14; Time 128.123 min): 0.00995 | OD600 of P. Aeruginosa PA14 (P. aeruginosa PA14; Time 138.8 min): 0.0106 | OD600 of P. Aeruginosa PA14 (P. aeruginosa PA14; Time 149.477 min): 0.01185 | OD600 of P. Aeruginosa PA14 (P. aeruginosa PA14; Time 160.153 min): 0.0109 | OD600 of P. Aeruginosa PA14 (P. aeruginosa PA14; Time 170.83 min): 0.01125 | OD600 of P. Aeruginosa PA14 (P. aeruginosa PA14; Time 181.507 min): 0.01245 | OD600 of P. Aeruginosa PA14 (P. aeruginosa PA14; Time 192.183 min): 0.01295 | OD600 of P. Aeruginosa PA14 (P. aeruginosa PA14; Time 202.86 min): 0.0136 | OD600 of P. Aeruginosa PA14 (P. aeruginosa PA14; Time 213.537 min): 0.01355 | OD600 of P. Aeruginosa PA14 (P. aeruginosa PA14; Time 224.213 min): 0.01385 | OD600 of P. Aeruginosa PA14 (P. aeruginosa PA14; Time 234.89 min): 0.0143 | OD600 of P. Aeruginosa PA14 (P. aeruginosa PA14; Time 245.567 min): 0.0154 | OD600 of P. Aeruginosa PA14 (P. aeruginosa PA14; Time 256.243 min): 0.01575 | OD600 of P. Aeruginosa PA14 (P. aeruginosa PA14; Time 266.922 min): 0.0155 | OD600 of P. Aeruginosa PA14 (P. aeruginosa PA14; Time 277.598 min): 0.0159 | OD600 of P. Aeruginosa PA14 (P. aeruginosa PA14; Time 288.275 min): 0.01755 | OD600 of P. Aeruginosa PA14 (P. aeruginosa PA14; Time 298.952 min): 0.01775 | OD600 of P. Aeruginosa PA14 (P. aeruginosa PA14; Time 309.628 min): 0.01825 | OD600 of P. Aeruginosa PA14 (P. aeruginosa PA14; Time 320.305 min): 0.0182 | OD600 of P. Aeruginosa PA14 (P. aeruginosa PA14; Time 330.982 min): 0.0183 | OD600 of P. Aeruginosa PA14 (P. aeruginosa PA14; Time 341.658 min): 0.0174 | OD600 of P. Aeruginosa PA14 (P. aeruginosa PA14; Time 352.335 min): 0.01685 | OD600 of P. Aeruginosa PA14 (P. aeruginosa PA14; Time 363.012 min): 0.01765 | OD600 of P. Aeruginosa PA14 (P. aeruginosa PA14; Time 373.688 min): 0.01775 | OD600 of P. Aeruginosa PA14 (P. aeruginosa PA14; Time 384.365 min): 0.01795 | OD600 of P. Aeruginosa PA14 (P. aeruginosa PA14; Time 395.042 min): 0.01805 | OD600 of P. Aeruginosa PA14 (P. aeruginosa PA14; Time 405.718 min): 0.01805 | OD600 of P. Aeruginosa PA14 (P. aeruginosa PA14; Time 416.395 min): 0.01825 | OD600 of P. Aeruginosa PA14 (P. aeruginosa PA14; Time 427.072 min): 0.01805 | OD600 of P. Aeruginosa PA14 (P. aeruginosa PA14; Time 437.748 min): 0.01825 | OD600 of P. Aeruginosa PA14 (P. aeruginosa PA14; Time 448.425 min): 0.018 | OD600 of P. Aeruginosa PA14 (P. aeruginosa PA14; Time 459.102 min): 0.0175 | OD600 of P. Aeruginosa PA14 (P. aeruginosa PA14; Time 469.78 min): 0.01855 | OD600 of P. Aeruginosa PA14 (P. aeruginosa PA14; Time 480.457 min): 0.0181 | OD600 of P. Aeruginosa PA14 (P. aeruginosa PA14; Time 491.133 min): 0.01785 | OD600 of P. Aeruginosa PA14 (P. aeruginosa PA14; Time 501.81 min): 0.01825 | OD600 of P. Aeruginosa PA14 (P. aeruginosa PA14; Time 512.487 min): 0.0184 | OD600 of P. Aeruginosa PA14 (P. aeruginosa PA14; Time 523.163 min): 0.01965 | OD600 of P. Aeruginosa PA14 (P. aeruginosa PA14; Time 533.84 min): 0.0189 | OD600 of P. Aeruginosa PA14 (P. aeruginosa PA14; Time 544.517 min): 0.0184 | OD600 of P. Aeruginosa PA14 (P. aeruginosa PA14; Time 555.193 min): 0.01805 | OD600 of P. Aeruginosa PA14 (P. aeruginosa PA14; Time 565.87 min): 0.0187 | OD600 of P. Aeruginosa PA14 (P. aeruginosa PA14; Time 576.547 min): 0.01815
